Earlier results, collected in patent US11872302B2, “Product for dyeing keratinous material, containing aminosilicone, a chromophoric compound and ester oil” (Henkel AG & Co. KGaA, priority 2019, dated 2024).

Conditions: 25° C.

Row | solubility in water | solubility in water, in words | Structure (SMILES)
1 | more than 20 wt. % |  | CCN(Cc1cccc(S(=O)(=O)O)c1)c1ccc(C(=C2C=CC(=[N+](CC)Cc3cccc(S(=O)(=O)O)c3)C=C2)c2ccccc2S(=O)(=O)[O-])cc1 [Acid Blue 9]
2 | above 40 g/L |  | O=[N+]([O-])c1cc([N+](=O)[O-])c2ccc(S(=O)(=O)O)cc2c1O [Acid Yellow 9, 8-hydroxy-5,7-dinitro-2-naphthalenesulfonic acid]
3 |  | highly soluble in water | O=C(O)C1=NN(c2ccc(S(=O)(=O)O)cc2)C(=O)C1N=Nc1ccc(S(=O)(=O)O)cc1 (stereo not shown) [Acid Yellow 23, 4,5-dihydro-5-oxo-1-(4-sulfophenyl)-4-((4-sulfophenyl)azo)-1H-pyrazole-3-carboxylic acid]

Row | Structure (SMILES) | solubility in water | solubility in water, in words
4 | O=S(=O)(O)c1ccc(N=Nc2c(O)ccc3ccccc23)cc1 [Acid Orange 7, 4-[(2-hydroxy-1-naphthyl)azo]benzene sulphonate] | more than 7 g/L | 
